Experiment [1] concerns TNFα production in LPS-stimulated leukocytes (human whole blood). Kind of experiment: TNFα production in human whole blood (LPS-stimulated). It is filed as cell-based. Conditions: Leukocyte, 1 hr preincubation, LPS 50 ng/ml, 20 hours. From the text: Assay 2: TNFα Production in Human Whole Blood
p38 Mitogen-activated protein (MAP) kinase (p38) regulates the biosynthesis of pro-inflammatory cytokines such as TNFα. The potency as an inhibitor of cytokine production can thus be assessed by measuring the effects on TNFα production in LPS-stimulated leukocytes. Carrying the assay out on whole blood rather than isolated leukocytes gives a measure of whole cell potency of the compound in the presence of plasma protein and cells, particularly red blood cells that in vivo are likely to lower circulating free drug concentrations. […] The concentrations of TNF in the original whole blood assay supernatants can then be determined from a standard curve generated using authentic human TNFα.
Heparinised blood drawn from normal volunteers was dispensed (100 μl) into microtitre plate wells containing 0.5 or 1.0 μl of an appropriately diluted compound solution. […] Plasma TNFα content was determined by electrochemiluminescence assay using the IGEN technology. […]
TNF assay plates (MSD: cat L41IB-1) were blocked overnight with 20 μl human serum cytokine diluent (MSD). […] 150 μl 2× read buffer T (MSD Cat R92TC-1) was added to the whole blood plates and 90 μl 2.5× read buffer P (MSD Cat R92PC-1) to the PBMC plates and all plates read in the MSD Sector Imager 6000 electrochemiluminescence reader.

In experiment [2] the target is T1, Recombinant human p38α (Homo sapiens, UniProt Q16539).
T1 construct: GST; made in house
The experiment is described as follows: Fluorescence anisotropy kinase binding assay. Conditions: 12 nM p38α, 5 nM fluorescent ligand. How it is done:
Assay 1: Fluorescence Anisotropy Kinase Binding Assay
The concentration of kinase enzyme should preferably be 2×Kf. The concentration of fluorescent ligand required will depend on the instrumentation used, and the fluorescent and physicochemical properties. The concentration used must be lower than the concentration of kinase enzyme, and preferably less than half the kinase enzyme concentration.
Recombinant human p38α was expressed as a GST-tagged protein. To activate this protein, 3.5 μM unactivated p38α was incubated in 50 mM Tris-HCl pH 7.5, 0.1 mM EGTA, 0.1% 2-mercaptoethanol, 0.1 mM sodium vanadate, 10 mM MgAc, 0.1 mM ATP with 200 nM MBP-MKK6 DD at 30 degrees for 30 mins. Following activation p38α was re-purified and the activity assessed using a standard filter-binding assay.
All components are dissolved in buffer of composition 62.5 mM HEPES, pH 7.5, 1.25 mM CHAPS, 1 mM DTT, 12.5 mM MgCl2 with final concentrations of 12 nM p38α and 5 nM fluorescent ligand. 30 μl of this reaction mixture is added to wells containing 1 μl of various concentrations of test compound (0.28 nM-16.6 μM final) or DMSO vehicle (3% final) in NUNC 384 well black microtitre plate and equilibrated for 30-60 mins at room temperature. Fluorescence anisotropy is read in Molecular Devices Acquest (excitation 485 nm/emission 535 nm).
Definitions: Ki=dissociation constant for inhibitor binding […]
On the technique in general: Polarisation of emitted light reports the rotation of a fluorescent probe.

The record followed here is US20080214623A1, “N-(2,2-Dimethylpropyl)-6- -3-Pyridinecarboxamide” (priority 2005, published 2008).

T1 sequence (Q16539 whole entry): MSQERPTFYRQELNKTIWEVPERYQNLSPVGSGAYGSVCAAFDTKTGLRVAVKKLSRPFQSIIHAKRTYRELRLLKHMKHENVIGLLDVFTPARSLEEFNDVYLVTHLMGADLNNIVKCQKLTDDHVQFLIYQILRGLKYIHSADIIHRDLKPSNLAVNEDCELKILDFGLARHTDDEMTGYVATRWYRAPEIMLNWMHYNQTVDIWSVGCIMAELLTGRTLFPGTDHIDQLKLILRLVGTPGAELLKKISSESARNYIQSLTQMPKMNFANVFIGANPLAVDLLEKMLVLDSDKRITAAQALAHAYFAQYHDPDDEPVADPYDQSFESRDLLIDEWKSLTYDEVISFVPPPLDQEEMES

For orientation: IC50 means the concentration that inhibits the measured activity by half. On to `Cc1c(F)cc(C(=O)Nc2ccon2)cc1-c1ccc(C(=O)NCC(C)(C)C)cn1` [Example 1], for which the IC50 in experiment [1] and in experiment [2] was less than 50 nM each time.
